Data published in ChEMBL document CHEMBL4308841, “Synthesis, in vitro antiproliferative activity, and kinase inhibitory effects of pyrazole-containing diarylureas and diarylamides” (Eur J Med Chem, 2018).

Tests used:
CCRF-CEM = assay: Growth inhibition of human CCRF-CEM cells assessed as cell growth at 0.1 uM incubated for 48 hrs by sulforhodamine B assay relative to control; format: functional; conditions: read-out: Activity
CAKI-1 [1] = assay: Growth inhibition of human Caki1 cells assessed as cell growth at 100 uM incubated for 48 hrs by sulforhodamine B assay relative to control; format: functional; conditions: CAKI-1, 48 h, read-out: Activity
COLO 205 = assay: Growth inhibition of human COLO205 cells assessed as cell growth at 100 uM incubated for 48 hrs by sulforhodamine B assay relative to control; format: functional; conditions: COLO 205, 48 h, read-out: Activity
NCI-H23 [2] = assay: Growth inhibition of human NCI-H23 cells assessed as cell growth at 0.01 uM incubated for 48 hrs by sulforhodamine B assay relative to control; format: functional; conditions: NCI-H23, 48 h, read-out: Activity
CAKI-1 [3] = assay: Growth inhibition of human Caki1 cells assessed as cell growth at 0.01 uM incubated for 48 hrs by sulforhodamine B assay relative to control; format: functional; conditions: CAKI-1, 48 h, read-out: Activity
MDA-MB-231 = assay: Growth inhibition of human MDA-MB-231 cells assessed as cell growth at 0.01 uM incubated for 48 hrs by sulforhodamine B assay relative to control; format: functional; conditions: MDA-MB-231, 48 h, read-out: Activity
SNB-75 [4] = assay: Growth inhibition of human SNB75 cells incubated for 48 hrs by sulforhodamine B assay; format: functional, cell-based; conditions: SNB-75, 48 h
SK-OV-3 = assay: Growth inhibition of human SKOV3 cells assessed as cell growth at 0.01 uM incubated for 48 hrs by sulforhodamine B assay relative to control; format: functional; conditions: SK-OV-3, 48 h, read-out: Activity
IGROV-1 = assay: Growth inhibition of human IGROV1 cells incubated for 48 hrs by sulforhodamine B assay; format: functional, cell-based; conditions: IGROV-1, 48 h
MCF7 = assay: Growth inhibition of human MCF7 cells incubated for 48 hrs by sulforhodamine B assay; format: functional, cell-based; conditions: MCF7, 48 h
SNB-19 = assay: Growth inhibition of human SNB19 cells assessed as cell growth at 1 uM incubated for 48 hrs by sulforhodamine B assay relative to control; format: functional; conditions: SNB-19, 48 h, read-out: Activity
SW-620 = assay: Growth inhibition of human SW620 cells incubated for 48 hrs by sulforhodamine B assay; format: functional, cell-based; conditions: SW-620, 48 h
786-0 = assay: Growth inhibition of human 786-0 cells assessed as cell growth at 1 uM incubated for 48 hrs by sulforhodamine B assay relative to control; format: functional; conditions: 786-0, 48 h, read-out: Activity
UACC-257 = assay: Growth inhibition of human UACC257 cells assessed as cell growth at 0.01 uM incubated for 48 hrs by sulforhodamine B assay relative to control; format: functional; conditions: UACC-257, 48 h, read-out: Activity
SNB-75 [5] = assay: Growth inhibition of human SNB75 cells assessed as cell growth at 0.01 uM incubated for 48 hrs by sulforhodamine B assay relative to control; format: functional; conditions: SNB-75, 48 h, read-out: Activity
RXF 393 = assay: Growth inhibition of human RXF393 cells assessed as cell growth at 100 uM incubated for 48 hrs by sulforhodamine B assay relative to control; format: functional; conditions: RXF 393, 48 h, read-out: Activity
NCI-H322M [6] = assay: Growth inhibition of human NCI-H322M cells assessed as cell growth at 0.1 uM incubated for 48 hrs by sulforhodamine B assay relative to control; format: functional; conditions: read-out: Activity
NCI-H23 [7] = assay: Growth inhibition of human NCI-H23 cells assessed as cell growth at 100 uM incubated for 48 hrs by sulforhodamine B assay relative to control; format: functional; conditions: NCI-H23, 48 h, read-out: Activity
SR [8] = assay: Growth inhibition of human SR cells assessed as cell growth at 1 uM incubated for 48 hrs by sulforhodamine B assay relative to control; format: functional; conditions: read-out: Activity
T47D = assay: Growth inhibition of human T47D cells assessed as cell growth at 100 uM incubated for 48 hrs by sulforhodamine B assay relative to control; format: functional; conditions: read-out: Activity
MDA-MB-468 = assay: Growth inhibition of human MDA-MB-468 cells assessed as cell growth at 0.1 uM incubated for 48 hrs by sulforhodamine B assay relative to control; format: functional; conditions: MDA-MB-468, 48 h, read-out: Activity
HL-60(TB) = assay: Growth inhibition of human HL-60(TB) cells incubated for 48 hrs by sulforhodamine B assay; format: functional, cell-based; conditions: HL-60, 48 h
A549 = assay: Growth inhibition of human A549/ATCC cells assessed as cell growth at 0.01 uM incubated for 48 hrs by sulforhodamine B assay relative to control; format: functional; conditions: A549, 48 h, read-out: Activity
SF-295 = assay: Growth inhibition of human SF295 cells assessed as cell growth at 0.01 uM incubated for 48 hrs by sulforhodamine B assay relative to control; format: functional; conditions: SF-295, 48 h, read-out: Activity
HCT-15 = assay: Growth inhibition of human HCT15 cells assessed as cell growth at 0.01 uM incubated for 48 hrs by sulforhodamine B assay relative to control; format: functional; conditions: HCT-15, 48 h, read-out: Activity
HCC 2998 = assay: Growth inhibition of human HCC2998 cells assessed as cell growth at 0.1 uM incubated for 48 hrs by sulforhodamine B assay relative to control; format: functional; conditions: HCC 2998, 48 h, read-out: Activity
SK-MEL-28 = assay: Growth inhibition of human SK-MEL-28 cells assessed as cell growth at 0.1 uM incubated for 48 hrs by sulforhodamine B assay relative to control; format: functional; conditions: SK-MEL-28, 48 h, read-out: Activity
SR [9] = assay: Growth inhibition of human SR cells assessed as cell growth at 0.1 uM incubated for 48 hrs by sulforhodamine B assay relative to control; format: functional; conditions: read-out: Activity
NCI-H322M [10] = assay: Growth inhibition of human NCI-H322M cells assessed as cell growth at 0.01 uM incubated for 48 hrs by sulforhodamine B assay relative to control; format: functional; conditions: read-out: Activity
UO-31 = assay: Growth inhibition of human UO31 cells assessed as cell growth at 1 uM incubated for 48 hrs by sulforhodamine B assay relative to control; format: functional; conditions: UO-31, 48 h, read-out: Activity
[11] = read-out: LC50 (the source's name)
[12] = read-out: pLC50 (the source's name) (converted)

SMILES: O=C(Nc1cccc(-n2cc(-c3ccncc3)c(-c3cc(O)cc(Cl)c3)n2)c1)Nc1ccc(Cl)c(C(F)(F)F)c1
- growth at 0.1 µM (CCRF-CEM): 95%
- growth at 100 µM (CAKI-1 [1]): -38%
- growth at 100 µM (COLO 205): -77%
- growth at 0.01 µM (NCI-H23 [2]): 92%
- growth at 0.01 µM (CAKI-1 [3]): 102%
- growth at 0.01 µM (MDA-MB-231): 105%
- GI50 (SNB-75 [4]; read-out: GI50): 1.49 µM
- CC50 (SNB-75 [4]; [11]): > 100 µM
- TGI (SNB-75 [4]; read-out: TGI): 63.6 µM
- GI50 (SNB-75 [4]; read-out: pGI50 (converted)): 1.48 µM
- CC50 (SNB-75 [4]; [12]): > 100 µM
- TGI (SNB-75 [4]; read-out: pTGI (converted)): 6.31 µM
- growth at 0.01 µM (SK-OV-3): 108%
- GI50 (IGROV-1; read-out: GI50): 3.81 µM
- CC50 (IGROV-1; [11]): > 100 µM
- TGI (IGROV-1; read-out: TGI): 12.6 µM
- GI50 (IGROV-1; read-out: pGI50 (converted)): 3.8 µM
- CC50 (IGROV-1; [12]): > 100 µM
- TGI (IGROV-1; read-out: pTGI (converted)): 12.6 µM
- GI50 (MCF7; read-out: GI50): 2.53 µM
- LC50 (MCF7; read-out: LC50): > 100 µM
- TGI (MCF7; read-out: TGI): 85.4 µM
- GI50 (MCF7; read-out: pGI50 (converted)): 2.63 µM
- LC50 (MCF7; read-out: pLC50 (converted)): > 100 µM
- TGI (MCF7; read-out: pTGI (converted)): 8.51 µM
- growth at 1 µM (SNB-19): 104%
- GI50 (SW-620; read-out: GI50): 3.29 µM
- LC50 (SW-620; read-out: LC50): 58 µM
- TGI (SW-620; read-out: TGI): 10.7 µM
- GI50 (SW-620; read-out: pGI50 (converted)): 3.31 µM
- LC50 (SW-620; read-out: pLC50 (converted)): 56.2 µM
- TGI (SW-620; read-out: pTGI (converted)): 10.7 µM
- growth at 1 µM (786-0): 84%
- growth at 0.01 µM (UACC-257): 90%
- growth at 0.01 µM (SNB-75 [5]): 53%
- growth at 100 µM (RXF 393): -72%
- growth at 0.1 µM (NCI-H322M [6]): 101%
- growth at 100 µM (NCI-H23 [7]): -55%
- growth at 1 µM (SR [8]): 57%
- growth at 100 µM (T47D): -52%
- growth at 0.1 µM (MDA-MB-468): 94%
- GI50 (HL-60(TB); read-out: GI50): 2.56 µM
- LC50 (HL-60(TB); read-out: LC50): > 100 µM
- TGI (HL-60(TB); read-out: TGI): 66.2 µM
- GI50 (HL-60(TB); read-out: pGI50 (converted)): 2.88 µM
- LC50 (HL-60(TB); read-out: pLC50 (converted)): > 100 µM
- TGI (HL-60(TB); read-out: pTGI (converted)): 6.61 µM
- growth at 0.01 µM (A549): 101%
- growth at 0.01 µM (SF-295): 58%
- growth at 0.01 µM (HCT-15): 93%
- growth at 0.1 µM (HCC 2998): 97%
- growth at 0.1 µM (SK-MEL-28): 100%
- growth at 0.1 µM (SR [9]): 98%
- growth at 0.01 µM (NCI-H322M [10]): 107%
- growth at 1 µM (UO-31): 84%

SMILES: COc1cc(Cl)cc(-c2nn(-c3cccc(NC(=O)Nc4cc(C(F)(F)F)cc(C(F)(F)F)c4)c3)cc2-c2ccncc2)c1
- growth at 0.1 µM (CCRF-CEM): 84%
- growth at 100 µM (CAKI-1 [1]): -61%
- growth at 100 µM (COLO 205): -68%
- growth at 0.01 µM (NCI-H23 [2]): 94%
- growth at 0.01 µM (CAKI-1 [3]): 97%
- growth at 0.01 µM (MDA-MB-231): 97%
- IC50 (SNB-75 [4]): 0.85 µM
- GI50 (SNB-75 [4]; read-out: GI50): 0.848 µM
- TGI (SNB-75 [4]; read-out: TGI): 5.83 µM
- GI50 (SNB-75 [4]; read-out: pGI50 (converted)): 0.851 µM
- CC50 (SNB-75 [4]; [12]): 70.8 µM
- TGI (SNB-75 [4]; read-out: pTGI (converted)): 5.89 µM
- growth at 0.01 µM (SK-OV-3): 100%
- IC50 (IGROV-1): 0.57 µM
- GI50 (IGROV-1; read-out: GI50): 0.572 µM
- CC50 (IGROV-1; [11]): > 100 µM
- TGI (IGROV-1; read-out: TGI): 12.6 µM
- GI50 (IGROV-1; read-out: pGI50 (converted)): 0.575 µM
- CC50 (IGROV-1; [12]): > 100 µM
- TGI (IGROV-1; read-out: pTGI (converted)): 12.6 µM
- IC50 (MCF7): 0.38 µM
- GI50 (MCF7; read-out: GI50): 0.354 µM
- LC50 (MCF7; read-out: LC50): > 100 µM
- TGI (MCF7; read-out: TGI): 9.32 µM
- GI50 (MCF7; read-out: pGI50 (converted)): 0.38 µM
- LC50 (MCF7; read-out: pLC50 (converted)): > 100 µM
- TGI (MCF7; read-out: pTGI (converted)): 9.33 µM
- growth at 1 µM (SNB-19): 28%
- IC50 (SW-620): 0.39 µM
- GI50 (SW-620; read-out: GI50): 0.3 µM
- LC50 (SW-620; read-out: LC50): 0.015 µM
- TGI (SW-620; read-out: TGI): 2 µM
- GI50 (SW-620; read-out: pGI50 (converted)): 0.389 µM
- LC50 (SW-620; read-out: pLC50 (converted)): 15.1 µM
- TGI (SW-620; read-out: pTGI (converted)): 2 µM
- growth at 1 µM (786-0): 38%
- growth at 0.01 µM (UACC-257): 96%
- growth at 0.01 µM (SNB-75 [5]): 71%
- growth at 100 µM (RXF 393): -92%
- growth at 0.1 µM (NCI-H322M [6]): 95%
- growth at 100 µM (NCI-H23 [7]): -58%
- growth at 1 µM (SR [8]): 28%
- growth at 100 µM (T47D): -22%
- growth at 0.1 µM (MDA-MB-468): 89%
- IC50 (HL-60(TB)): 0.33 µM
- GI50 (HL-60(TB); read-out: GI50): 0.37 µM
- LC50 (HL-60(TB); read-out: LC50): > 100 µM
- TGI (HL-60(TB); read-out: TGI): 3.24 µM
- GI50 (HL-60(TB); read-out: pGI50 (converted)): 0.324 µM
- LC50 (HL-60(TB); read-out: pLC50 (converted)): > 100 µM
- TGI (HL-60(TB); read-out: pTGI (converted)): 3.24 µM
- growth at 0.01 µM (A549): 100%
- growth at 0.01 µM (SF-295): 95%
- growth at 0.01 µM (HCT-15): 93%
- growth at 0.1 µM (HCC 2998): 105%
- growth at 0.1 µM (SK-MEL-28): 102%
- growth at 0.1 µM (SR [9]): 92%
- growth at 0.01 µM (NCI-H322M [10]): 100%
- growth at 1 µM (UO-31): 15%
